# Laboratory results reported in patent US7122543B2, “Substituted benzoic acid derivatives having NF-κB inhibiting action” (Daiichi Suntory Pharma Co., Ltd., priority 2001, dated 2006).
# Test system: NF-κB
# Experiment: NF-κB luciferase reporter assay in A549/NF-κBLuc cells stimulated with IL-1β
# Assay type: cell-based, human
# Details: Homo sapiens, A549, A549/NF-κBLuc cells; compound added 1 hour before IL-1β, 3 hours more incubation; luciferase activity as index
# Protocol: Effects of Compounds on Human Lung Cancer A549 Cells (A549/NF-κBLuc) Stably Transfected with Luciferase Plasmid (pNFκB-Luc, Stratagene, U.S.A.) Having the NF-κB Regulatory Sequence
# Using lipofectamine (Lifetech Oriental K.K., Tokyo), pNFκB-Luc were cotransfected with pSV2neo (Clontech, U.S.A.) into A549 cells (ATCC CCL185) according to the conventional method, and A549/NF-κBLuc stably transfected with pNFκB-Luc were selected by adding G418 sulfate (1 mg/ml, Lifetech Oriental K.K.) to the culture medium.
# A compound prepared in an Example was added to A549/NF-κBLuc, then IL-1β which was able to activate the NF-κB was added at 1 hour thereafter and incubation was continued for 3 hours more. It has been made clear by using a luciferase activity as an index that the compound obtained in the Example suppresses the activation of NF-κB by stimulated with IL-1β.
row,IC50 [µg/mL],Compound
1,> 45,"COC1=C(OC)C(=O)C(Cc2ccc(-c3ccncc3)c(C(=O)N3CCOCC3)c2)=C(C)C1=O [Example 59, N-[5-(5,6-Dimethoxy-3-methyl-1,4-benzoquinon-2-yl)methyl-2-(4-pyridyl)benzoyl]morpholine]"
2,15,"COC1=C(OC)C(=O)C(Cc2ccc(-c3cccnc3)c(C(=O)N3CCCCC3)c2)=C(C)C1=O [Example 54, N-[5-(5,6-Dimethoxy-3-methyl-1,4-benzoquinon-2-yl)methyl-2-(3-pyridyl)benzoyl]piperidine]"
3,> 15,"COC1=C(OC)C(=O)C(Cc2ccc(C(=O)O)c(-c3cccnc3)c2)=C(C)C1=O [Example 36, 4-(5,6-Dimethoxy-3-methyl-1,4-benzoquinon-2-yl)methyl-2-(3-pyridyl)benzoic acid]"
4,> 45,"COC1=C(OC)C(=O)C(Cc2ccc(-c3ccncc3)c(C(=O)N[C@@H](C)c3ccccc3)c2)=C(C)C1=O [Example 74a, (S)-N-[5-(5,6-Dimethoxy-3-methyl-1,4-benzoquinon-2-yl)methyl-2-(4-pyridyl)benzoyl]-1-phenylethylamine]"
5,> 45,"COC1=C(OC)C(=O)C(Cc2ccc(-c3cccnc3)c(C(=O)N3CCOCC3)c2)=C(C)C1=O [Example 55, N-[5-(5,6-Dimethoxy-3-methyl-1,4-benzoquinon-2-yl)methyl-2-(3-pyridyl)benzoyl]morpholine]"
6,> 45,"COC1=C(OC)C(=O)C(Cc2ccc(-c3cccnc3)c(C(=O)Nc3ccc(OC)cc3)c2)=C(C)C1=O [Example 56, N-[5-(5,6-Dimethoxy-3-methyl-1,4-benzoquinon-2-yl)methyl-2-(3-pyridyl)benzoyl]-4-methoxy-aniline]"
7,> 45,"COC1=C(OC)C(=O)C(Cc2ccc(-c3ccccc3OC)c(C(=O)Nc3ccc(OC)cc3)c2)=C(C)C1=O [Example 68, N-[5-(5,6-Dimethoxy-3-methyl-1,4-benzoquinon-2-yl)methyl-2-(2-methoxyphenyl)benzoyl]-4-methoxyaniline]"
8,> 30,"COC1=C(OC)C(=O)C(Cc2cccc(C(=O)Nc3ccc(C(F)(F)F)cc3)c2-c2ccncc2)=C(C)C1=O [Example 73, N-[3-(45,6-Dimethoxy-3-methyl-1,4-benzoquinon-2-yl)methyl-2-(4-pyridyl)benzoyl]-4-trifluoromethylaniline]"

# Same assay, conditions: Homo sapiens, A549, same value printed in parentheses in μM; A549/NF-κBLuc cells, IL-1β stimulation, luciferase activity
row,IC50 [µM],Compound
1,33,"COC1=C(OC)C(=O)C(Cc2ccc(-c3cccnc3)c(C(=O)N3CCCCC3)c2)=C(C)C1=O [Example 54, N-[5-(5,6-Dimethoxy-3-methyl-1,4-benzoquinon-2-yl)methyl-2-(3-pyridyl)benzoyl]piperidine]"
